Measured values taken from US20080139534A1, “Bisbenzamidines and bisbenzamidoximes for the treatment of human African trypanosomiasis” (XAVIER UNIVERSITY OF LOUISIANA, priority 2006, published 2008).
Read-outs that look alike come from different tables or passages of the source. Marks after values point to notes of the source that are not given here.

Key:
[1] = test system: T. b. brucei Lab 110 EATRO; assay: In vivo efficacy in infected mice; design: species or system Trypanosoma brucei brucei; conditions: for # Cured/#Treated (%): mice, 1, 2.5, 5, 10, 15, 25 mg/kg/day i.p. for 3 days (all doses failed to cure)
Description: Female Swiss-Webster mice (weight, 20 g) were infected (intraperitoneally) with 2.5×10^5 trypanosomes from rat blood, and the infection was allowed to develop for 24 h before drug treatment was begun. Groups of three mice each were injected (intraperitoneally) with each drug concentration. All of the experiments included a group of untreated controls. […] Parasitemia of animals dying of infection averaged 0.5-1.0×10^9/mL of blood. These infections are very predictable and daily counts were not done because of the labor involved. […] Animals were monitored weekly for parasites in tail vein blood smears. Mice were considered cured if they survived more than 30 days after the death of the last control with no parasites in tail vein blood smears. MSD (mean survival in days) was also recorded for each group. It is the average time of survival of the animals in the group, exclusive of cured animals.
Mice were infected with 250,000 parasites and dosing commenced 24 h. post infection. Mice were separated into groups of three and given single i.p doses for 3 days unless otherwise noted. Infected untreated controls were used for each experiment. Mice were considered cured if surviving more than 30 days beyond death of controls without parasites in tail vein blood smears. MSD, mean survival in days, exclusive of cured animals.

[2] = test system: T. b. brucei Lab 110 EATRO; assay: In vitro trypanocidal activity, bloodforms in HMI-18 medium, Coulter counts; type: cell-based, Trypanosoma brucei brucei; conditions: 48 h exposure, bloodforms, read-out: Lab 100 EATRO IC50
Description: (§1) The compounds were tested against trypanosome isolates grown as blood forms in HMI-18 medium containing 20% horse serum in 24 well microplates at 37° C. in 5% CO2. Wells were inoculated with 1×10^5 trypanosomes. […] One-half the volume was replaced daily. Cell counts were made daily with a Coulter Counter, Model Z1 (Beckman Coulter, Miami, Fla., USA). Cells were diluted with Isoton I buffer (Beckman Coulter) and the aperture was standardized at 5.14 μm. Background checks were performed daily on 1:10 dilutions of medium. Counts, normalization, and coincident counts were accounted for by the standardized Coulter analysis program. Occasionally, hemocytometer counts were performed as a check on the validity of the Coulter program. IC50 values were determined after 48 h from semi-log plots and the values are the result of duplicate determinations. Initially a broad concentration curve was used and then a close concentration curve from which IC50 values were determined. Assays were done in duplicate and each point was the average of the two. Control cells grew to 5×10^6/ml.
(§2) Coulter counts were made daily and IC50 values determined after 48 hours exposure.

poly(dA-dT) = assay: Thermal denaturation study, DNA binding affinity (ΔTm); conditions: 1:5 compound to base pair ratio;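 also: shift in the midpoint temperature of the thermal melting curve of poly(dA-dT), each value the mean of two or more independent determinations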
Description: (§3) The binding affinity was measured by determining the change in the midpoint (Tm) of the thermal denaturation curves of calf thymus DNA as well as poly(dA-dT) at a 1:5 compound to base pair ratio.

calf thymus DNA = assay: as above; conditions: 1:5 compound to base pair ratio;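 also: shift in midpoint melting temperature of calf thymus DNA thermal denaturation curves caused by compound binding, values averaged over at least two determinations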
Description: as §3

[3] = test system: T. b. rhodesiense KETRI 243; assay: In vitro trypanocidal activity, bloodforms in HMI-18 medium, Coulter counts; type: cell-based, Trypanosoma brucei rhodesiense; conditions: 48 h exposure
Description: as §1, §2

[4] = test system: T. b. rhodesiense KETRI 1992; assay: In vivo efficacy in infected mice, clinical isolate; design: species or system Trypanosoma brucei rhodesiense
Description: (§4) Female Swiss-Webster mice (weight, 20 g) were infected (intraperitoneally) with 2.5×10^5 trypanosomes from rat blood, and the infection was allowed to develop for 24 h before drug treatment was begun. Groups of three mice each were injected (intraperitoneally) with each drug concentration. All of the experiments included a group of untreated controls. […] Animals were monitored weekly for parasites in tail vein blood smears. Mice were considered cured if they survived more than 30 days after the death of the last control with no parasites in tail vein blood smears. MSD (mean survival in days) was also recorded for each group. It is the average time of survival of the animals in the group, exclusive of cured animals.
(§5) Mice were infected on day 1 with 2.5×10^5 trypanosomes and the infections allowed to progress 24 h. prior to dosing. Animals were dosed 1×/day i.p for 3 days. Cured animals survived >30 days beyond the death of untreated, infected controls. MSD=mean survival in days exclusive of cured animals. Dose as mg/kg/day.

[5] = test system: T. b. rhodesiense KETRI 2002; assay: as above; design: species or system Trypanosoma brucei rhodesiense
Description: as §4, §5

[6] = mice, 1, 2.5, 5, 10, 15, 25 mg/kg/day i.p. for 3 days (all doses)
[7] = mice, 1 mg/kg/day i.p. for 3 days
[8] = mice, 5 mg/kg/day i.p. for 3 days
[9] = mice, 10 mg/kg/day i.p. for 3 days
[10] = KETRI 1992, 1 mg/kg/day i.p. for 3 days
[11] = KETRI 1992, 5 mg/kg/day i.p. for 3 days
[12] = KETRI 1992, 10 mg/kg/day i.p. for 3 days
[13] = KETRI 1992, 25 mg/kg/day i.p. for 3 days
[14] = KETRI 2002, 1 mg/kg/day i.p. for 3 days
[15] = KETRI 2002, 5 mg/kg/day i.p. for 3 days
[16] = KETRI 2002, 10 mg/kg/day i.p. for 3 days
[17] = KETRI 2002, 15 mg/kg/day i.p. for 3 days

## Cc1nc(-c2ccc(NC(=O)CCCC(=O)Nc3ccc(-c4noc(C)n4)cc3)cc2)no1 [TH728, N,N′-Bis[4-(5-Methyl-1,2,4-oxadiazol-3yl)phenyl]pentanediamide]
other
  melting point: 235 to 237 °C

## N/C(=N\OC(=O)c1ccccc1)c1ccc(NC(=O)CCCC(=O)Nc2ccc(/C(N)=N/OC(=O)c3ccccc3)cc2)cc1 [TH746, N,N′-Bis[4-(N-Phenylcarbonyloxyamidino)phenyl]pentanediamide]
other
  melting point: 253 to 255 °C

## CCCCCCNC(=N)c1ccc(N2CCN(c3ccc(C(=N)NCCCCCC)cc3)CC2)cc1.Cl.Cl [compound 0128]
[1]
  # Cured/#Treated (%): 0/3^a
[1]; [6]
  MSD: 5.3 to 10.6 days
[2]
  IC50: 13 nM
poly(dA-dT)
  DNA Binding Δ Tm Poly (dA-dT): 10.1 °C
Calf thymus DNA
  DNA Binding Δ Tm Calf thymus: 10.7 °C
[3]
  IC50: 23.9 nM

## CCCCCC(=O)ONC(=N)c1ccc(NC(=O)CCCC(=O)Nc2ccc(C(=N)NOC(=O)CCCCC)cc2)cc1 [TH742, N,N′-Bis[4-(N-Pentylcarbonyloxyamidino)phenyl]pentanediamide]
other
  melting point: 182 to 184 °C

## N=C(N)c1ccc(NC(=O)CCCCCC(=O)Nc2ccc(C(=N)N)cc2)cc1 [compound 0706]
[1]; [7]
  MSD: >30 days
[1]; [8]
  MSD: >30 days
[1]; [9]
  MSD: >30 days
[1]; mice, 15 mg/kg/day i.p. for 3 days
  MSD: >30 days
[2]
  IC50: 1.62 nM
[4]; [10]
  #Cured/Total: 0/3
  MSD: 14 days
[4]; [11]
  #Cured/Total: 0/3
  MSD: 18.3 days
[4]; [12]
  #Cured/Total: 0/3
  MSD: 18.6 days
[4]; [13]
  #Cured/Total: 0/3
  MSD: 19.3 days
[3]
  IC50: 2.05 nM
[5]; [14]
  MSD: >30 days
[5]; [15]
  MSD: >30 days
[5]; [16]
  MSD: >30 days
[5]; [17]
  MSD: >30 days

## O=C(CCCC(=O)Nc1ccc(-c2noc(-c3ccccc3)n2)cc1)Nc1ccc(-c2noc(-c3ccccc3)n2)cc1 [TH747, N,N′-Bis[4-(5-Phenyl-1,2,4-oxadiazol-3yl)phenyl]pentanediamide]
other
  melting point: 255 to 257 °C

## N=C(N)c1ccc(NC(=O)CCCCCCCCC(=O)Nc2ccc(C(=N)N)cc2)cc1 [compound 0709]
[1]; [7]
  MSD: 12 days
[1]; [8]
  MSD: >30 days
[1]; [9]
  MSD: >30 days
[1]; mice, 25 mg/kg/day i.p. for 3 days
  MSD: >30 days
[2]
  IC50: 2 nM
[4]; [10]
  #Cured/Total: 0/3
  MSD: 12.6 days
[4]; [11]
  #Cured/Total: 0/3
  MSD: 13.7 days
[4]; [12]
  #Cured/Total: 0/3
  MSD: 15.7 days
[4]; [13]
  #Cured/Total: 0/3
  MSD: 26.6 days
[3]
  IC50: 4.1 nM
[5]; [14]
  #Cured/Total: 0/3
  MSD: 18 days
[5]; [15]
  MSD: 33 days
[5]; [16]
  MSD: >30 days
[5]; [17]
  MSD: >30 days
[5]; KETRI 2002, 25 mg/kg/day i.p. for 3 days
  MSD: >30 days

## CCCCCc1nc(-c2ccc(NC(=O)CCCC(=O)Nc3ccc(-c4noc(CCCCC)n4)cc3)cc2)no1 [TH743, N,N′-Bis[4-(5-Pentyl-1,2,4-oxadiazol-3yl)phenyl]pentanediamide]
other
  melting point: 171 to 173 °C

## CC(=O)O/N=C(\N)c1ccc(NC(=O)CCCC(=O)Nc2ccc(/C(N)=N/OC(C)=O)cc2)cc1 [TH724, N,N′-bis[4-(N-acetoxyamidino)phenyl]pentanediamide]
other
  melting point: 225 to 228 °C

## N=C(N)c1ccc(COc2ccccc2OCc2ccc(C(=N)N)cc2)cc1 [compound 0519]
[1]
  # Cured/#Treated (%): 0/3^a
[1]; [6]
  MSD: 5 days
[2]
  IC50: 1.3 nM
poly(dA-dT)
  DNA Binding Δ Tm Poly (dA-dT): −0.1 °C
Calf thymus DNA
  DNA Binding Δ Tm Calf thymus: 0.1 °C
[3]
  IC50: 2.1 nM

## Cl.Cl.N=C(NC1CC1)c1ccc(N2CCCN(c3ccc(C(=N)NC4CC4)cc3)CC2)cc1 [73C]
[2]
  IC50: 870 nM
poly(dA-dT)
  DNA Binding Δ Tm Poly (dA-dT): 23.6 °C
Calf thymus DNA
  DNA Binding Δ Tm Calf thymus: 15.3 °C
[3]
  IC50: 810 nM

## CC(=O)c1ccc(N2CCN(c3ccc(C(C)=O)cc3)CC2)cc1 [compound 0123]
[2]
  IC50: 2350 nM
poly(dA-dT)
  DNA Binding Δ Tm Poly (dA-dT): 0.0 °C
Calf thymus DNA
  DNA Binding Δ Tm Calf thymus: 0.1 °C
[3]
  IC50: 1550 nM

## c1ccc2[nH]c(-c3ccc(N4CCN(c5ccc(-c6nc7ccccc7[nH]6)cc5)CC4)cc3)nc2c1 [compound 0115, 1,4-bis[4-(1H-benzymidazol-2-yl)phenyl]piperazine]
[2]; Trypanosoma brucei
  IC50: 1150 nM
poly(dA-dT)
  DNA Binding Δ Tm Poly (dA-dT): 2.0 °C
Calf thymus DNA
  DNA Binding Δ Tm Calf thymus: 0.1 °C
[3]; Trypanosoma brucei, RHODESIENSE
  IC50: 5800 nM
